Test results from patent US5854050A, “Enzyme with protease activity” (Novo Nordisk A/S, priority 1993, dated 1998).

Experiments:
[1] = system: Ground defatted feed quality soy; test: Two-step hydrolysis of feed soy (°Brix, osmolality, DH); format: biochemical
Protocol: Ground defatted feed quality soy was mixed with deionised water under the conditions described below. The hydrolysis was carried out in two steps in order to simulate the pH conditions in the stomach and the small intestine.
70 g ground defatted soy
Time 1st step 180 minutes
Enzymes 1st step I) Pepsin 1.92 g
II) I + Bio-Feed Pro 3.0 L
2nd step I) Pancreatin 6 g
The enzymes were added at start 0 minutes. During the hydrolysis ° Brix and osmolality were measured to follow the reaction course. According to Adler-Nissen (1986) the osmolality values can be used for calculation of the Degree of Hydrolysis (DH) by the following equation: [formula] Where Δ is the increase in osmolality mOSM, S % is protein concentration, ω is the calibration factor for the osmometer, htot is the total number of peptide bonds in the protein substrate (meqv/g protein), and fosm is the factor for converting % to g/kg H2 O. [formula]

Hen Lysozyme = test: Cleaning of contact lenses: removal of denatured 14C-lysozyme in 3% H2O2, pH 3.5; format: biochemical; conditions: 3% H2O2, pH 3.5, four hours, 25° C.; FIG. 7
From the text: The experimental protocol was as follows:
Materials: Hen Lysozyme, L-6878 from Sigma "Rythmic" contact lens' from Essilor (Type II lens, high-water, nonionic) Protease I produced as described above Protease II produced as described above Porcine pepsin, P-6887 from Sigma Subtilisin carlsberg, Clear-Lens Pro® (Novo Nordisk A/S).
Standard buffer: 0.05M Na2 HPO4, 0.9% NaCl pH 7.5
Scintillation liquid, Optiphase "HiSafe III"
Hen lysozyme from Sigma was labelled with ^14 C through reductive methylation and purified.
A solution was made containing 0.05M Na2 HPO4, 0.9% NaCl and 0.2 mg/ml lysozyme pH 7.5. An amount of ^14 C-labelled lysozyme was added so the CPM (Counts Per Minute) is approximately 200.000. 1.0 ml of the solution was transferred to a scintillation glass. The contact lens was added and the glass placed in a water-bath at 85° C. for 30 minutes.
The contact lens was then rinsed in 3×3 ml reagent buffer. It was quartered with a scalpel. Each quarter was transferred to a new scintillation glass containing 3 ml of the reagent buffer. […]
The reaction took place over four hours at 25° C. […] 12 ml scintillation liquid was added and CPM was measured in a Packard 2500 TR liquid scintillation counter. […]
The relative amount of lysozyme removed from the lens during the combined disinfection/cleaning was calculated from the mass balance of each quarter lens. […]

[2] = STEP II (pH 6.5, with Pancreatin), 180 min

Pepsin
mOSM ([1]; STEP I (pH 4.0, 40° C.), 0 min): 347 mOSM
mOSM INCREASE ([1]; STEP I (pH 4.0, 40° C.), 0 min): 0 mOSM
°BRIX ([1]; STEP I (pH 4.0, 40° C.), 0 min): 5.09 °BRIX
% DH (Degree of Hydrolysis) ([1]; STEP I (pH 4.0, 40° C.), 0 min, calculated from osmolality): 0%
% DH (Degree of Hydrolysis) ([1]; STEP I, 5 min): 2.86%
mOSM ([1]; STEP I, 5 min): 362 mOSM
mOSM INCREASE ([1]; STEP I, 5 min): 15 mOSM
°BRIX ([1]; STEP I, 5 min): 6.135 °BRIX
% DH (Degree of Hydrolysis) ([1]; STEP I, 10 min): 2.86%
mOSM ([1]; STEP I, 10 min): 362 mOSM
mOSM INCREASE ([1]; STEP I, 10 min): 15 mOSM
°BRIX ([1]; STEP I, 10 min): 6.505 °BRIX
% DH (Degree of Hydrolysis) ([1]; STEP I, 15 min): 2.57%
mOSM ([1]; STEP I, 15 min): 360.5 mOSM
mOSM INCREASE ([1]; STEP I, 15 min): 13.5 mOSM
°BRIX ([1]; STEP I, 15 min): 6.625 °BRIX
% DH (Degree of Hydrolysis) ([1]; STEP I, 30 min): 3.14%
mOSM ([1]; STEP I, 30 min): 363.5 mOSM
mOSM INCREASE ([1]; STEP I, 30 min): 16.5 mOSM
°BRIX ([1]; STEP I, 30 min): 6.9275 °BRIX
% DH (Degree of Hydrolysis) ([1]; STEP I, 45 min): 3.62%
mOSM ([1]; STEP I, 45 min): 366 mOSM
mOSM INCREASE ([1]; STEP I, 45 min): 19 mOSM
°BRIX ([1]; STEP I, 45 min): 7.345 °BRIX
% DH (Degree of Hydrolysis) ([1]; STEP I, 60 min): 4.00%
mOSM ([1]; STEP I, 60 min): 368 mOSM
mOSM INCREASE ([1]; STEP I, 60 min): 21 mOSM
°BRIX ([1]; STEP I, 60 min): 7.745 °BRIX
% DH (Degree of Hydrolysis) ([1]; STEP I, 90 min): 4.47%
mOSM ([1]; STEP I, 90 min): 370.5 mOSM
mOSM INCREASE ([1]; STEP I, 90 min): 23.5 mOSM
°BRIX ([1]; STEP I, 90 min): 8.175 °BRIX
% DH (Degree of Hydrolysis) ([1]; STEP I, 120 min): 4.95%
mOSM ([1]; STEP I, 120 min): 373 mOSM
mOSM INCREASE ([1]; STEP I, 120 min): 26 mOSM
°BRIX ([1]; STEP I, 120 min): 8.695 °BRIX
% DH (Degree of Hydrolysis) ([1]; STEP I, 180 min): 6.57%
mOSM ([1]; STEP I, 180 min): 381.5 mOSM
mOSM INCREASE ([1]; STEP I, 180 min): 34.5 mOSM
°BRIX ([1]; STEP I, 180 min): 9.195 °BRIX
mOSM [1, 2]: 468 mOSM
mOSM INCREASE [1, 2]: 0 mOSM
°BRIX [1, 2]: 12.965 °BRIX
mOSM ([1]; STEP II, 185 min): 996 mOSM
mOSM INCREASE ([1]; STEP II, 185 min): 528 mOSM
°BRIX ([1]; STEP II, 185 min): 15.135 °BRIX
mOSM ([1]; STEP II, 190 min): 1009 mOSM
mOSM INCREASE ([1]; STEP II, 190 min): 541 mOSM
°BRIX ([1]; STEP II, 190 min): 15.4025 °BRIX
mOSM ([1]; STEP II, 195 min): 1015.5 mOSM
mOSM INCREASE ([1]; STEP II, 195 min): 547.5 mOSM
°BRIX ([1]; STEP II, 195 min): 15.637 °BRIX
mOSM ([1]; STEP II, 210 min): 1037.5 mOSM
mOSM INCREASE ([1]; STEP II, 210 min): 569.5 mOSM
°BRIX ([1]; STEP II, 210 min): 16.135 °BRIX
mOSM ([1]; STEP II, 225 min): 1054.5 mOSM
mOSM INCREASE ([1]; STEP II, 225 min): 586.5 mOSM
°BRIX ([1]; STEP II, 225 min): 16.415 °BRIX
mOSM ([1]; STEP II, 240 min): 1068.5 mOSM
mOSM INCREASE ([1]; STEP II, 240 min): 600.5 mOSM
°BRIX ([1]; STEP II, 240 min): 16.705 °BRIX
mOSM ([1]; STEP II, 270 min): 1087.5 mOSM
mOSM INCREASE ([1]; STEP II, 270 min): 619.5 mOSM
°BRIX ([1]; STEP II, 270 min): 17.075 °BRIX
mOSM ([1]; STEP II, 300 min): 1111 mOSM
mOSM INCREASE ([1]; STEP II, 300 min): 643 mOSM
°BRIX ([1]; STEP II, 300 min): 17.437 °BRIX
mOSM ([1]; STEP II, 360 min): 1148 mOSM
mOSM INCREASE ([1]; STEP II, 360 min): 680 mOSM
°BRIX ([1]; STEP II, 360 min): 18.075 °BRIX

B1: Subtilisin carlsberg (protein, UniProt P00780 106-379, looked up)
Subtilisin Carlsberg: AQTVPYGIPLIKADKVQAQGFKGANVKVAVLDTGIQASHPDLNVVGGASFVAGEAYNTDGNGHGTHVAGTVAALDNTTGVLGVAPSVSLYAVKVLNSSGSGSYSGIVSGIEWATTNGMDVINMSLGGASGSTAMKQAVDNAYAKGVVVVAAAGNSGSSGNTNTIGYPAKYDSVIAVGAVDSNSNRASFSSVGAELEVMAPGAGVYSTYPTNTYATLNGTSMASPHVAGAAALILSKHPNLSASQVRNRLSSTATYLGSSFYYGKGLINVEAAAQ
notes: Subtilisin carlsberg, Clear-Lens Pro® (Novo Nordisk A/S), presently used serin protease for contact lens cleaning
performance in contact lens cleaning (lysozyme removed) (Hen Lysozyme): poor performance
